Measured values taken from ChEMBL document CHEMBL4270587, “Difuran-substituted quinoxalines as a novel class of PI3Kα H1047R mutant inhibitors: Synthesis, biological evaluation and structure-activity relationship” (Eur J Med Chem, 2018).

What was measured:
[1] = target: PI3-kinase p110-alpha/p85-alpha (Homo sapiens, UniProt P42336, H1047R); assay: Inhibition of recombinant full length PI3K p85alpha/p110alpha H1047R mutant (unknown origin) expressed in baculovirus infected sf9 cells using PIP2 as substrate preincubated for 10 mins followed by ATP addition and measured after 45 mins by HTRF assay
PI3-kinase p110-alpha/p85-alpha, sequence (P42336 whole entry H1047R, looked up): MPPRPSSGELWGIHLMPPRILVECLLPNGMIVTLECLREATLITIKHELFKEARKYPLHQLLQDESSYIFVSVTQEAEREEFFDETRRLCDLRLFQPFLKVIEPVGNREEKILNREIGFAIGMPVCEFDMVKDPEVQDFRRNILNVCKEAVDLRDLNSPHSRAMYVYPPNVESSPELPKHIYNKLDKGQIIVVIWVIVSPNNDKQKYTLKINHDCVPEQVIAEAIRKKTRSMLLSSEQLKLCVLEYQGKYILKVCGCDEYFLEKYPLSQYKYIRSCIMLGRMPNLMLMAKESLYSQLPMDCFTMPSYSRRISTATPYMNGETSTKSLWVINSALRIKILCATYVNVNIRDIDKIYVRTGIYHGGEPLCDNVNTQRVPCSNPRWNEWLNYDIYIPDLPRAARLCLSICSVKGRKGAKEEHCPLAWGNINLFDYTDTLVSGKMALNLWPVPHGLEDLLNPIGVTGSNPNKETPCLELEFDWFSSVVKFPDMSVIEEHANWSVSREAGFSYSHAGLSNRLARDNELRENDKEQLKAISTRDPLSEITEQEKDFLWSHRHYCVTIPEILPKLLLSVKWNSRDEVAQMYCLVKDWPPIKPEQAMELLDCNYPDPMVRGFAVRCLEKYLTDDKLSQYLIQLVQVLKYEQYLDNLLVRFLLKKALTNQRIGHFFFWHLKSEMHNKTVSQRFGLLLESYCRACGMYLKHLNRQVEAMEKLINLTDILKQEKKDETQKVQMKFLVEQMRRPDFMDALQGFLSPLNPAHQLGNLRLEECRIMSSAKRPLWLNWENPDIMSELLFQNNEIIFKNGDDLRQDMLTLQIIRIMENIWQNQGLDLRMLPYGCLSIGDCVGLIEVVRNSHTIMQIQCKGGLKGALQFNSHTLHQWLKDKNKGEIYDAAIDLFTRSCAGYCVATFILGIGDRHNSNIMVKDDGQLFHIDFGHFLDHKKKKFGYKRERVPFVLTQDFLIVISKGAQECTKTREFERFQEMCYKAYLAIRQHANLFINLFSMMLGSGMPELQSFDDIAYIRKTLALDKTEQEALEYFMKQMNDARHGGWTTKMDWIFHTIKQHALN

HCT-116 = assay: cells; conditions: Homo sapiens, HCT-116, 72 h
MCF7 = assay: cells; conditions: Homo sapiens, MCF7, 72 h
Description: Antiproliferative activity against human MCF7 cells after 72 hrs by CCK8 assay

## c1coc(-c2nc3ccc(-c4ccncc4)cc3nc2-c2ccco2)c1
[1]
  EC50: > 100 µM
HCT-116
  IC50: > 50 µM
MCF7
  IC50: > 50 µM

## Cc1ccc2nc(-c3ccco3)c(-c3ccco3)nc2c1
[1]
  EC50: > 100 µM
HCT-116
  IC50: > 50 µM
MCF7
  IC50: > 50 µM

## COc1ccccc1-c1ccc2nc(-c3ccco3)c(-c3ccco3)nc2c1
[1]
  EC50: 87.3 µM
HCT-116
  IC50: > 50 µM
MCF7
  IC50: > 50 µM

## COc1cc(OC)cc(-c2cc3nc(-c4ccco4)c(-c4ccco4)nc3cc2Br)c1
[1]
  EC50: > 100 µM
HCT-116
  IC50: > 50 µM
MCF7
  IC50: > 50 µM

## Brc1ccccc1-c1cc2nc(-c3ccco3)c(-c3ccco3)nc2cc1Br
[1]
  EC50: > 100 µM
HCT-116
  IC50: > 50 µM
MCF7
  IC50: > 50 µM

## Brc1cc2nc(-c3ccco3)c(-c3ccco3)nc2cc1-c1ccccc1
[1]
  EC50: 20.5 µM
HCT-116
  IC50: > 50 µM
MCF7
  IC50: > 50 µM

## Fc1ccc(-c2cc3nc(-c4ccco4)c(-c4ccco4)nc3cc2Br)c(F)c1
[1]
  EC50: 3.2 µM
HCT-116
  IC50: 16.6 µM
MCF7
  IC50: 27.9 µM

## Clc1ccc2nc(-c3ccco3)c(-c3ccco3)nc2c1
[1]
  EC50: 18.1 µM
HCT-116
  IC50: > 50 µM
MCF7
  IC50: > 50 µM

## CC(C)(C)OC(=O)n1cccc1-c1cc2nc(-c3ccco3)c(-c3ccco3)nc2cc1Br
[1]
  EC50: 18.6 µM
HCT-116
  IC50: > 50 µM
MCF7
  IC50: > 50 µM

## c1coc(-c2nc3ccc(-c4cc5ccccc5o4)cc3nc2-c2ccco2)c1
[1]
  EC50: > 100 µM
HCT-116
  IC50: > 50 µM
MCF7
  IC50: > 50 µM

## Fc1ccc(-c2cc3nc(-c4ccco4)c(-c4ccco4)nc3cc2Br)cc1
[1]
  EC50: 1.9 µM
HCT-116
  IC50: 38.1 µM
MCF7
  IC50: 35.1 µM

## Oc1ccccc1-c1ccc2nc(-c3ccco3)c(-c3ccco3)nc2c1
[1]
  EC50: 43.5 µM
HCT-116
  IC50: > 50 µM
MCF7
  IC50: > 50 µM

## FC(F)(F)c1ccc2nc(-c3ccco3)c(-c3ccco3)nc2c1
[1]
  EC50: > 100 µM
HCT-116
  IC50: > 50 µM
MCF7
  IC50: > 50 µM

## Brc1cc2nc(-c3ccco3)c(-c3ccco3)nc2cc1-c1cc2ccccc2o1
[1]
  EC50: > 100 µM
HCT-116
  IC50: > 50 µM
MCF7
  IC50: > 50 µM

## Fc1cccc(-c2cc3nc(-c4ccco4)c(-c4ccco4)nc3cc2Br)c1
[1]
  EC50: 2.9 µM
HCT-116
  IC50: 43.1 µM
MCF7
  IC50: 19.6 µM

## Brc1cc2nc(-c3ccco3)c(-c3ccco3)nc2cc1-c1cncnc1
[1]
  EC50: 13.5 µM
HCT-116
  IC50: > 50 µM
MCF7
  IC50: > 50 µM

## Fc1cccc(-c2cc3nc(-c4ccco4)c(-c4ccco4)nc3cc2Br)c1F
[1]
  EC50: 7.3 µM
HCT-116
  IC50: > 50 µM
MCF7
  IC50: > 50 µM

## Fc1ccccc1-c1ccc2nc(-c3ccco3)c(-c3ccco3)nc2c1
[1]
  EC50: 12.7 µM
HCT-116
  IC50: 39.7 µM
MCF7
  IC50: > 50 µM

## c1ccc2nc(N3CCOCC3)c(N3CCOCC3)nc2c1
[1]
  EC50: > 100 µM
HCT-116
  IC50: > 50 µM
MCF7
  IC50: > 50 µM

## COc1ccc(-c2cc3nc(-c4ccco4)c(-c4ccco4)nc3cc2Br)cc1
[1]
  EC50: > 100 µM
HCT-116
  IC50: > 50 µM
MCF7
  IC50: > 50 µM

## Brc1cc2nc(-c3ccco3)c(-c3ccco3)nc2cc1-c1ccncc1
[1]
  EC50: 10.8 µM
HCT-116
  IC50: 45.7 µM
MCF7
  IC50: > 50 µM

## Fc1ccc2nc(-c3ccco3)c(-c3ccco3)nc2c1
[1]
  EC50: > 100 µM
HCT-116
  IC50: > 50 µM
MCF7
  IC50: > 50 µM

## Brc1cc2nc(-c3ccco3)c(-c3ccco3)nc2cc1Br
[1]
  EC50: 39.3 µM
HCT-116
  IC50: > 50 µM
MCF7
  IC50: > 50 µM

## c1coc(-c2nc3ccc(-c4cc5ccccc5s4)cc3nc2-c2ccco2)c1
[1]
  EC50: > 100 µM
HCT-116
  IC50: > 50 µM
MCF7
  IC50: > 50 µM

## Oc1ccccc1-c1cc2nc(-c3ccco3)c(-c3ccco3)nc2cc1Br
[1]
  EC50: > 100 µM
HCT-116
  IC50: > 50 µM
MCF7
  IC50: > 50 µM

## FC(F)(F)c1ccc(-c2cc3nc(-c4ccco4)c(-c4ccco4)nc3cc2Br)cc1
[1]
  EC50: 0.516 µM
HCT-116
  IC50: 14.9 µM
MCF7
  IC50: 25.2 µM

## c1ccc(-c2nc3ccccc3nc2-c2ccccc2)cc1
[1]
  EC50: > 100 µM
HCT-116
  IC50: > 50 µM
MCF7
  IC50: > 50 µM

## Brc1cc2nc(-c3ccco3)c(-c3ccco3)nc2cc1-c1cc2ccccc2s1
[1]
  EC50: 1.2 µM
HCT-116
  IC50: 38.5 µM
MCF7
  IC50: 40.9 µM

## COc1ccccc1-c1cc2nc(-c3ccco3)c(-c3ccco3)nc2cc1Br
[1]
  EC50: > 100 µM
HCT-116
  IC50: > 50 µM
MCF7
  IC50: > 50 µM
